Here are results for seven molecules from patent US11674963B2, “GPCRs in cancer-associated fibroblasts” (The Regents of the University of California, priority 2017, dated 2023).

Format in all cases: cell-based, human
One assay concerns CAFs. The experiment in a line: Real-time qPCR of GPR68 and IL-6 expression in CAFs at pH 6.8 with PKA or CREB inhibitors. The following applies: CAFs cultured 6 h in pH 6.8 media, normalized to pH 7.4. As to the method: FIG. 6A show CAFs transfected with control or GPR68 siRNA were cultured in pH media for 30 min, treated with 1 mM IBMX for 10 min and cellular cAMP was measured by the HitHunter cAMP assay. Data are mean±SEM, n=3, two-way ANOVA, *p<0.05, ****p<0.0001. […] Results were normalized to those at pH 7.4. n=3, data are mean±SEM, unpaired t test, **p<0.01, ***p<0.001, ns=non-significant. […] Activation of CREB is shown as p-CREB/CREB. Data are mean±SEM, n=3, unpaired t test, *p<0.05. […] Results are normalized to those at pH 7.4. Data are mean±SEM, n=3, unpaired t test, **p<0.01, ***p<0.001, ns=non-significant.
(§1) RNA isolated using an RNeasy kit with DNase treatment (Qiagen) and converted to cDNA using an iScript cDNA Synthesis Kit (Bio-Rad, Irvine, Calif., USA). cDNA was mixed with gene-specific primers and SYBR green reagent (Quanta Biosciences, Gaithersburg, Md., USA) for PCR amplification using a DNA Engine Opticon 2 system (MJ Research, Waltham, Mass., USA). Primers were designed using Primer Premier 6 software (PREMIER Biosoft, Palo Alto, Calif., USA). Gene expression was quantified as ΔCt using 18S rRNA as the reference gene. Expression of different cells was compared as fold-change=2(AACt). RNA isolated using an RNeasy kit with DNase treatment (Qiagen) and converted to cDNA using an iScript cDNA Synthesis Kit (Bio-Rad, Irvine, Calif., USA). cDNA was mixed with gene-specific primers and SYBR green reagent (Quanta Biosciences, Gaithersburg, Md., USA) for PCR amplification using a DNA Engine Opticon 2 system (MJ Research, Waltham, Mass., USA). Primers were designed using Primer Premier 6 software (PREMIER Biosoft, Palo Alto, Calif., USA). Gene expression was quantified as ΔCt using 18S rRNA as the reference gene. Expression of different cells was compared as fold-change=2(AACt). […] Gene expression was quantified as ΔCt using 18S rRNA as the reference gene. […]
The pH media are DMEM containing 5 g/L glucose, 20 mM HEPES, 20 mM NaHCO3, 2% FBS, 100 I.U./ml penicillin and 100 μg/ml streptomycin, pH adjusted by HCl or NaOH at room temperature. […] Cell viability were assessed by a CEllTiter-Glo Luminescent assay (Promega) and detected using a DXT 800 multimode plate reader (Beckman Coulter, Carlsbad, Calif., USA).
Background: Real-time PCR tracks product formation cycle by cycle.

Assay [1] has as its system PSCs. The experiment in a line: Real-time qPCR of GPR68 expression in PSCs incubated with TNFα and NF-κB inhibitors. The following applies: 6 h, TNFα 50 ng/mL; MG-132 20 μM, IKK2 inhibitor VI 5 μM, JSH-23 20 μM, CAY10512 0.3 μM.
Text: (§2) FIGS. 3A-3D show co-culture of PDAC cells and PSCs increases expression by PSCs of GPR68 and fibrotic genes, effects mediated by TNFα and TGFβ, respectively. […] Relative expression was compared by 2^(ΔCt control-ΔCtco-culture). Data are mean±SEM, n=3, unpaired t test, *p<0.05, **p<0.01, ***p<0.001, ****p<0.0001. […] Relative expression was compared by 2^(ΔCt control-ΔCtTGFβ1 or ΔCtTNFα). Data are mean±SEM, n=3, unpaired t test, *p<0.05, **p<0.01, ****p<0.0001. […] Relative expression was compared to control by 2(ΔCt control-ΔCtco-culture). Data are mean±SEM, n=3, unpaired t test, *p<0.05. […] Relative expression was normalized to control by 2(ΔCt^control-ΔCtTGFβ1 or ^ΔCtTNFα) n=3, data are mean±SEM, unpaired t test, *p<0.05, **p<0.01, ****p<0.0001.
as §1

Assay [2] relates to PSCs. Nature of the assay: Real-time qPCR of gene expression in PSCs incubated with TGFβ1 or TNFα. The following applies: PSCs incubated 48 h with 50 ng/mL.
Text: as §2
RNA isolated using an RNeasy kit with DNase treatment (Qiagen) and converted to cDNA using an iScript cDNA Synthesis Kit (Bio-Rad, Irvine, Calif., USA). cDNA was mixed with gene-specific primers and SYBR green reagent (Quanta Biosciences, Gaithersburg, Md., USA) for PCR amplification using a DNA Engine Opticon 2 system (MJ Research, Waltham, Mass., USA). Primers were designed using Primer Premier 6 software (PREMIER Biosoft, Palo Alto, Calif., USA). Gene expression was quantified as ΔCt using 18S rRNA as the reference gene. Expression of different cells was compared as fold-change=2(AACt). RNA isolated using an RNeasy kit with DNase treatment (Qiagen) and converted to cDNA using an iScript cDNA Synthesis Kit (Bio-Rad, Irvine, Calif., USA). cDNA was mixed with gene-specific primers and SYBR green reagent (Quanta Biosciences, Gaithersburg, Md., USA) for PCR amplification using a DNA Engine Opticon 2 system (MJ Research, Waltham, Mass., USA). Primers were designed using Primer Premier 6 software (PREMIER Biosoft, Palo Alto, Calif., USA). Gene expression was quantified as ΔCt using 18S rRNA as the reference gene. Expression of different cells was compared as fold-change=2(AACt). The primer sequences are: 18S-F: 5′-[…]-3′ (SEQ ID NO: 1); 18S-R: 5′-[…]-3′ (SEQ ID NO: 2); GPR68-F: 5′-CCTTCCGCTTCCACCAGTT-3′ (SEQ ID NO: 3); GPR68-R: 5′-TCGTCCTCGATGACCTCCT-3′ (SEQ ID NO: 4); ACTA2-F: 5′-[…]-3′ (SEQ ID NO: 5); ACTA2-R: 5′-[…]-3′ (SEQ ID NO: 6); COL1A1-F: 5′-[…]-3′ (SEQ ID NO: 7); COL1A1-R: 5′-[…]-3′ (SEQ ID NO: 8); IL6-F: 5′-[…]-3′ (SEQ ID NO: 9); IL6-R: 5′-[…]-3′ (SEQ ID NO: 10); COL3A1-F: 5′-GCTGGCTACTTCTCGCTCT-3′ (SEQ ID NO: 11); COL3A1-R: 5′-[…]-3′ (SEQ ID NO: 12); POSTN-F: 5′-[…]-3′ (SEQ ID NO: 13); POSTN-R: 5′-[…]-3′ (SEQ ID NO: 14); CTGF-F: 5′-[…]-3′ (SEQ ID NO: 15); CTGF-R: 5′-GCTACAGGCAGGTCAGTGA-3′ (SEQ ID NO: 16); PDGFRB-F: 5′-[…]-3′ (SEQ ID NO: 17); PDGFRB-R: 5′-[…]-3′ (SEQ ID NO: 18). Gene expression was quantified as ΔCt using 18S rRNA as the reference gene. We compared expression of different cells as fold-change=2(AACt).

Where a SMILES comes first, the peptide text is derived from it. The star is where a group is joined. Cbz = O=C(OCc1ccccc1)*

As to `O=S(=O)(NCCNC/C=C/c1ccc(Br)cc1)c1cccc2cnccc12` [H89], in the assay with CAFs, the “GPR68 expression in CAFs” value is reported as “did not alter” and the “pH 6.8-promoted increase in IL-6 expression by CAFs” value is reported as “blocked”.

With `NC(=O)Nc1sc(-c2ccccc2)cc1C(N)=O` [IKK2 inhibitor VI], the “TNFα-promoted increase in GPR68 expression in PSCs” value (“TNFα-promoted increase” for short) with PSCs [1] is “reduced”.

As to `Cc1ccc(NCCCc2ccccc2)c(N)c1` [JSH-23], in the assay on PSCs [1], the “TNFα-promoted increase” value is “reduced”.

Turning to `CC(C)C[C@@H](C=O)NC(=O)[C@H](CC(C)C)NC(=O)[C@H](CC(C)C)NC(=O)OCc1ccccc1` [MG132] (Cbz-Leu-Leu-Leu-aldehyde), the “TNFα-promoted increase” value with PSCs [1] is given as “reduced”.

On to `O=C(Nc1ccc(Cl)cc1)c1cc2ccccc2cc1O` [naphthol AS-E], for which, in the assay on CAFs, the “GPR68 expression in CAFs” value was “without altering” and the “pH 6.8-promoted increase in IL-6 expression by CAFs” value was “blunted”.

As to “TGFβ1: Transforming growth factor beta 1, a driver of PSC activation”, in the assay on PSCs [2], the ACTA2 expression entry is on record as “increased expression” and the COL1A1 expression result is listed as “increased expression”. Also, the GPR68 expression entry in the assay on PSCs [2] (result in words) is “did not change”.

As for TNFα, in the assay on PSCs [2], the ACTA2 expression result is recorded as “not higher” and the COL1A1 expression entry was “not higher”. For the same molecule, in the assay with PSCs [2] (higher vs control), the “expression of GPR68” value stood at 18 fold and the “expression of IL-6” value amounted to 31 fold.
